Data published in US20100008980A1, “Use of MAGE A3-Protein D Fusion Antigen in Immunotherapy Combined with Surgery, Chemotherapy or Radiotherapy for the Treatment of Cancer” (priority 2007, published 2010).
Like-named read-outs stand apart in the source and are kept apart here.

Columns and labels:
MAGE-A3 = test system: MAGE-A3
Protocol: (§1) Groups of CB6F1 female mice (n=10/group) received at day 0 sub-cutaneous (SC) 10e5 TC1-Mage3 cells followed by injection of: • Group 1: PBS at day 3-7-11-15 • Group 2: MAGE-A3 (1 μg)/As 15 ASCI at day 3-7-11-15 • Group 3: Cyclophosphamide (CY) (2 mg IP) at day 0+PBS at day 3-7-11-15 • Group 4: CY+MAGE-A3 (1 μg)/AS15 ASCI
(§2) • verification of the depletion by FACS at day 3 and 15 on whole blood • in vivo tumor growth from day 0 to day 28 • ICS at day 28 on spleen cells • serology at day 28 (not completed)
14 days after the last ASCI injection, the T cell response was analyzed by intracellular cytokine staining of CD4 and CD8 using flow cytometry (3 pools per group) after a short in vitro restimulation (2 Hrs) with the pool of MAGE-A3 overlapping peptide spanning the entire MAGE-A3 sequence.

CD4+CD25+ Treg = assay type: in vivo, CB6F1 female mice; settings: for % CD4+ CD25+/ total cell / % Treg/ total cell / CD4+ CD25+ (events): blood, CY 2 mg IP at day 0
Protocol: as §1, §2
(§3) In order to analyze the impact of 2 mg of CY injected intraperitoneally in mice, 3 and 15 days after the injection blood was taken and lymphocytes count was performed by FACS

lymphocytes = assay type: in vivo, CB6F1 female mice; settings: for Total Cell count (multisizer): blood, CY 2 mg IP at day 0
Protocol: as §1, §2, §3

TC1-Mage3 cells = assay type: in vivo, CB6F1 female mice; settings: 10e5 TC1 MAGE3 cells SC day 0; cyclophosphamide 2 mg at day 0; groups of 10 mice
Protocol: as §1, §2

Compound: O=P1(N(CCCl)CCCl)NCCCO1 (stereo not shown) [Cyclophosphamide (Cy), Cyclophosphamide]
- MAGE-A3 specific CD4 response (MAGE-A3; cyclophosphamide by itself, spleen cells day 28, FIG. 1): did not induce any MAGE-A3 specific CD4 response
- MAGE-A3 specific CD8 response (MAGE-A3; cyclophosphamide by itself, spleen cells day 28, FIG. 2): did not induce any MAGE_A3 specific CD8 response
- effect on the CD4 response induced by the ASCI (MAGE-A3; cyclophosphamide given 3 days before the ASCI, FIG. 1): did not abolish the CD4 response induced by the ASCI there is even a trend in favor of a better response
- effect on the CD8 response induced by the ASCI (MAGE-A3; cyclophosphamide given 3 days before the ASCI, FIG. 2): did not abolish the CD8 response induced by the ASCI there is even a trend in favor of a better response
- number of T reg (in words) (CD4+CD25+ Treg; 3 days after 2 mg cyclophosphamide): only slightly decreased the number of T reg but did not deplete them
- % CD4+ CD25+/ total cell (CD4+CD25+ Treg; 3 days): 0.1%
- % Treg/ total cell (CD4+CD25+ Treg; 3 days): 0.07%
- CD4+ CD25+ (events) (CD4+CD25+ Treg; 3 days): 274 events
- % CD4+ CD25+/ total cell (CD4+CD25+ Treg; 15 days): 0.16%
- % Treg/ total cell (CD4+CD25+ Treg; 15 days): 0.13%
- CD4+ CD25+ (events) (CD4+CD25+ Treg; 15 days): 539 events
- total number of T cells (in words) (lymphocytes; 3 days after 2 mg CY): has an impact on the total number of T cells
- total number of T cells (in words) (lymphocytes; 15 days after the injection of CY): almost restored
- Total Cell count (multisizer) (lymphocytes; 3 days after injection): 1 ×10e6 cells/ml
- Total Cell count (multisizer) (lymphocytes; 15 days after injection): 5.53 ×10e6 cells/ml
- tumor rejection, % of the animals (TC1-Mage3 cells): 100%
